# PubChem BioAssay (NCI)
#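 Where inhibition never reached the appropriate level, the endpoint shown equals the highest concentration tested. Otherwise, values were interpolated linearly from a five-concentration, 48-hour dose response in 96-well plates. At the GI50, growth is halved. TGI is the concentration that stops growth completely.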
# Assays:
# Assay in all cases: DTP human tumour cell line panel, 48 h
# HCC-2998 colon = test system: HCC-2998 colon
# IGROV1 ovarian = test system: IGROV1 ovarian
# UO-31 renal = test system: UO-31 renal
# OVCAR-8 ovarian = test system: OVCAR-8 ovarian
# SN12C renal = test system: SN12C renal
# HCT-15 colon = test system: HCT-15 colon
# K-562 leukemia = test system: K-562 leukemia
# COLO 205 colon = test system: COLO 205 colon
# EKVX NSCLC = test system: EKVX NSCLC
# T-47D breast = test system: T-47D breast
SMILES,TGI (HCC-2998 colon) [µM],TGI (IGROV1 ovarian) [µM],TGI (UO-31 renal) [µM],TGI (OVCAR-8 ovarian) [µM],TGI (SN12C renal) [µM],TGI (HCT-15 colon) [µM],TGI (K-562 leukemia) [µM],TGI (COLO 205 colon) [µM],TGI (EKVX NSCLC) [µM],GI50 (HCC-2998 colon) [µM],GI50 (T-47D breast) [nM],TGI (T-47D breast) [µM],GI50 (IGROV1 ovarian) [µM],GI50 (UO-31 renal) [µM],GI50 (OVCAR-8 ovarian) [µM],GI50 (SN12C renal) [µM],GI50 (HCT-15 colon) [µM],GI50 (COLO 205 colon) [µM],GI50 (K-562 leukemia) [nM],GI50 (EKVX NSCLC) [µM]
O=C1CC(c2ccccc2)NCN1 (centres undefined),> 100,> 100,> 100,> 100,> 100,> 100,> 100,> 100,> 100,,,,,,,,,,,
CCOC(=O)C(=O)Nc1ccc([N+](=O)[O-])cc1C#N,> 100,> 100,> 100,> 100,> 100,> 100,> 100,,> 100,,,,,,,,,,,
COC1=CC(C)C2C[C@H]3O[C@H](O)C[C@H]4C(C)C(=O)C(O)C([C@@]2(C)C1=O)[C@@]34C (some centres undefined),> 100,> 100,> 100,> 100,> 100,> 100,> 100,> 100,> 100,,,,,,,,,,,
CCC(=O)Nc1ccc2c(c1)CN1C(=O)c3ccccc3C1=N2,> 100,> 100,> 100,> 100,> 100,> 100,,> 100,,> 100,> 100000,> 100,> 100,> 100,> 100,> 100,> 100,> 100,,
NC1=NN(c2ccccc2)C(=O)C1C(=O)C(=O)Nc1cccc(C(F)(F)F)c1 (centres undefined),> 100,> 100,> 100,> 100,> 100,> 100,> 100,> 100,> 100,,,,,,,,,,,
CC(=O)[CH-]C(C)=O.CC(=O)[CH-]C(C)=O.CC(=O)[CH-]C(C)=O.[Cl-].[Hf+4],> 100,> 100,> 100,> 100,> 100,> 100,> 100,> 100,> 100,> 100,,,> 100,> 100,> 100,> 100,> 100,> 100,> 100000,> 100
O=C1OC2(c3ccccc31)c1cc(I)c(O)c(I)c1Oc1c2cc(I)c(O)c1I,,> 100,> 100,> 100,> 100,> 100,> 100,> 100,> 100,,,> 100,,,,,,,,
O[C@H]1[C@H]2[C@H](O)CCCN2C[C@H]1O,> 100,> 100,> 100,> 100,> 100,> 100,,> 100,> 100,,,,,,,,,,,
O=C(Nc1cccc(-c2nc3ccccc3[nH]2)c1)c1cccc(NC(=O)c2ccco2)c1,21.5,17,11.8,5.14,4.88,10.8,4.36,10.6,,10,1750,3.79,5.34,3.24,2.18,2.07,3.06,3.49,2030,
